# Assay results: patent US11648199B2 (AI Therapeutics, Inc, priority 2014, dated 2023)
# “Also recorded” adds a separate entry of the source. Read-outs that look alike come from different tables or passages of the source.
# How the values were obtained:
# [1] = 28-day repeat dose inhalation toxicokinetics, study 7300225; assay type: in vivo, SD rats; conditions: average of D28
# From the text: Two sets of animals were used to perform the toxicokinetic measurements for this study.
# [2] = 24 hours after 14th dose, cited from earlier work
# [3] = Extrapolation of rat and dog inhalation data to human dosing; conditions: extrapolated
# [4] = Rapamycin in lung and blood by LC-MS/MS after oropharyngeal aspiration (OPA) or oral gavage; assay type: in vivo, male C57BL/6 mice
# Description: Test Chemical Preparation: Evans Blue was prepared at 0.5% w/v in sterile distilled water. Rapamune Oral® was administered as supplied for oral dosing.
# Dosing: Each animal was weighed prior to dosing to determine the amount of dose to be administered. A single gavage dose was administered using a […], glass syringe (Hamilton, Reno, Nev.) fitted with a ball-tipped 20-G stainless steel gavage dosing needle (Popper & Sons Inc., New Hyde Park, N.Y.). The dose administered to each animal was determined from the weight of the full syringe minus that of the empty syringe. The dosing time was recorded. Dosing of animals was spaced apart to allow blood collection at the appropriate times. The dose formulations administered to each group are shown below.
# Each mouse was anesthetized with isoflurane, and restrained with the mouth open. The tongue was held to one side of the mouth with forceps, and the dose was slowly injected into the distal part of the oral cavity. The nostrils were covered with a finger for two breaths to ensure aspiration (Rao et al., 2003).
# Collection of Blood and Lung Samples: At study termination (1 or 72 h after dosing), mice were anesthetized by exposure to CO2, and blood was collected by cardiac puncture with dipotassium EDTA as anticoagulant. Lung tissue was excised and divided into the right and left lung. The left lung was used for analysis, and the right lung flash frozen in liquid nitrogen and stored at −70° C. for further analysis.
# Triamcinolone was used as internal standard.
# Lung homogenate was prepared by homogenization of weighed lung samples with 2.8-mm ball bearings in a homogenizer with tissue+deionized water (1:3 w/v) in a SPEX SamplePrep 2010 Geno/Grinder.
# The concentrations of standards were arranged so that each standard came from an alternate stock standard. A six-point calibration curve, each made in triplicate, was employed for analyte quantitation. A simple linear regression model with or without weighting was employed for curve fitting. The concentration range determined was from 1-2000 ng/mL in blood and 2-2000 ng/mL in lung homogenate.
# Thirty (30) μL of matrix, 30 μL of spiking solution (methanol for blanks and samples), 10 μL Internal standard solution (in MeOH) and 90 μL of MeOH were pipetted into microcentrifuge tubes, vortexed briefly, then centrifuged for 6 min at 10,000 RPM at −4° C. Aliquots (90 μL) of supernatant were transferred to LC vial inserts, and then analyzed by LC-MS/MS (Table 2).
# [5] = test system: S6 phosphorylation (mTOR pathway); assay: Phosphorylated S6 by western blot in AML cells; assay type: cell-based, human; conditions: 20 nM, 24 hours (FIG. 7, top)
# [6] = 28-day repeat dose inhalation toxicokinetics, study 7300227; assay type: in vivo, Beagle dogs; conditions: for concentration at 24 h: Beagle, dog, lung, read-out: Lung 24 hr trough levels; for Blood trough levels / Max blood levels: average of D28
# From the text: For the dog study, a positive flow delivery system (PFDS) consisting of a central plenum and delivery arms was utilized. The central plenum was of modular design with separate ports into which were attached 5 delivery arms fitted with oronasal exposure masks fitted with inlet and outlet tubes. The mask was fitted over the dog's muzzle in such a way that the nose was inside the mask, allowing entrance and exit of air. During exposure, animals wore a harness and were placed on a restraint platform. The harness was attached to two side poles on the platform in order to restrict lateral movement of the dog. The front part of the harness was loosely attached to a hook on the front of the platform to prevent the animal from turning around. […] For each dosing group, one set of animals (N=6) was dosed for 60 minutes each day for 28 consecutive days.
# [7] = emitted dose 50 ug, repeat inhaled daily dose 5 ug
# [8] = emitted dose 2850 ug, repeat inhaled daily dose 285 ug
# [9] = emitted dose 87 ug, repeat inhaled daily dose 35 ug
# [10] = emitted dose 175 ug, repeat inhaled daily dose 70 ug
# [11] = emitted dose 160 ug, repeat inhaled daily dose 40 ug
# [12] = emitted dose 424 ug, repeat inhaled daily dose 106 ug
compound,measurement,setting,value
"CO[C@H]1C[C@@H]2CC[C@@H](C)[C@@](O)(O2)C(=O)C(=O)N2CCCC[C@H]2C(=O)O[C@H]([C@H](C)C[C@@H]2CC[C@@H](O)[C@H](OC)C2)CC(=O)[C@H](C)/C=C(\C)[C@@H](O)[C@@H](OC)C(=O)[C@H](C)C[C@H](C)/C=C/C=C/C=C/1C [Rapamycin, (3 S,6R,7E,9R,10R,12R,14S,15E,17E,19E,21S,23 S,26R,27R,34aS)-9,10,12,13,-14,21,22,23,24,25,26,27,32,33,34,34a-hexadecahydro-9,27-dihydroxy-3-[(1R)-2-[(1S,3R,4R)-4-hydroxy-3-methoxycyclohexyl]-1-methylethyl]-10,21-dimethox-y-6,8,12,14,20,26-hexamethyl-23,27-epoxy-3H-pyrido[2,1-c][1,4]oxaazacyclohentriacontine-1,5,11,28,29(4H,6H,31H)-pentone]",Blood trough levels,[1]; [7],2 ng/mL
same,Max blood levels,[1]; [7],7.6 ng/mL
same,Max blood levels,"[1]; emitted dose 1425 ug, repeat inhaled daily dose 143 ug",70.5 ng/mL
same,Blood trough levels,[1]; [8],21.0 ng/mL
same,Max blood levels,[1]; [8],77.8 ng/mL
same,Rapamycin in Blood,[2]; IV 0.04 mg/kg/day,9.4 ng/mL
same,Rapamycin in Lung,[2]; IV 0.04 mg/kg/day,219 ng/g
same,Rapamycin in Blood,[2]; IV 0.08 mg/kg/day,15.0 ng/mL
same,Rapamycin in Lung,[2]; IV 0.08 mg/kg/day,457 ng/g
same,Rapamycin in Blood,[2]; IV 0.40 mg/kg/day,19.6 ng/mL
same,Rapamycin in Lung,[2]; IV 0.40 mg/kg/day,868 ng/g
same,Rapamycin in Blood,[2]; oral 0.4 mg/kg/day,0.8 ng/mL
same,Rapamycin in Lung,[2]; oral 0.4 mg/kg/day,42 ng/g
same,Rapamycin in Blood,[2]; oral 0.8 mg/kg/day,2.1 ng/mL
same,Rapamycin in Lung,[2]; oral 0.8 mg/kg/day,59 ng/g
same,Blood trough levels,[3]; [9],0.15 ng/mL
same,Lung 24 hr trough levels,[3]; [9],2 ng/g
same,Max blood levels,[3]; [9],0.65 ng/mL
same,Blood trough levels,[3]; [10],0.3 ng/mL
same,Lung 24 hr trough levels,[3]; [10],4 ng/g
same,Max blood levels,[3]; [10],1.3 ng/mL
same,"rapamycin in blood, in words","[4]; OPA 1 mg/kg, 72 h",below the limit of quantitation; also recorded: undetectable
same,Blood (ng/ml),"[4]; OPA 1 mg/kg, 72 h post-dose, individual mice",<ELOQ
same,Lung (ng/g tissue),"[4]; gavage (Rapamune Oral) 1 mg/kg, 1 h post-dose, individual mice, 1 mg/kg",<LOQ
same,"rapamycin in lung or blood, in words","[4]; oral (gavage) 1 mg/kg, 72 hrs",undetectable
same,S6 phosphorylation,[5],potently inhibits S6 phosphorylation
same,concentration at 24 h,"[6]; inhaled, 106 ug",61 ng/g
same,concentration at 24 h,"[6]; emitted dose 160 ug, repeat inhaled daily dose 40 ug, after 28 days",32 ng/g
same,Blood trough levels,[6]; [11],1.9 ng/mL
same,Max blood levels,[6]; [11],7.4 ng/mL
same,Blood trough levels,[6]; [12],5.9 ng/mL
same,Max blood levels,[6]; [12],27.3 ng/mL
